In paper PMC11238352, “Combination of dual JAK/HDAC inhibitor with regorafenib synergistically reduces tumor growth, metastasis, and regorafenib-induced toxicity in colorectal cancer” (Journal of Experimental & Clinical Cancer Research : CR, 2024):

Legend:
SW480 cells [1] = assay: Cell cycle analysis by flow cytometry; format: cell-based; conditions: SW480, 24 h, 500 nM
Method: To evaluate the effect of drugs on cell cycle arrest, SW480 and RKO cells were seeded, 1 × 10^6/dish in triplicates in four groups: vehicle, JAK/HDACi, regorafenib, and their combination (for 24 h, following procedure described in our previous study. Cell cycle analysis was performed using BD LSR FortessaTM Flow Cytometer (BD Biosciences, Mountain View, CA).

HCT116 cells = assay: Annexin V-FITC/PI apoptosis flow cytometry; format: cell-based; conditions: HCT116, 72 h, average of three experiments
Method: (§1) To evaluate the effect of drugs on apoptosis, cells were stained by use of TACS Annexin V-FITC apoptosis detection kit obtained from R&D Systems (Minneapolis, MN), following the manufacturer’s protocol. CRC cells (HCT116, RKO, HT29, and SW480) were seeded at 1 × 10^5/dish in triplicates in four groups: vehicle, JAK/HDACi, regorafenib, and the combination for 72 h. The cells were analyzed with a BD LSR FortessaTM Flow Cytometer (BD Biosciences, Mountain View, CA).

HT29 cells = assay: Annexin V-FITC/PI apoptosis flow cytometry; format: cell-based; conditions: HT29, 72 h, average of three experiments
Method: as §1

RKO cells = assay: Annexin V-FITC/PI apoptosis flow cytometry; format: cell-based; conditions: 72 h, average of three experiments
Method: as §1

SW480 cells [2] = assay: Annexin V-FITC/PI apoptosis flow cytometry; format: cell-based; conditions: SW480, 72 h, average of three experiments
Method: as §1

[3] = test system: luciferase-tagged HT29 cells; assay: HT29 luciferase experimental metastasis model; format: in vivo; conditions: NSG mice
Method: To assess the effect of JAK/HDACi, regorafenib and their combination drug treatments on metastasis, an experiment was performed with 6-week-old NOD/SCID/IL2γ receptor-null (NSG) mice (male and female) as described. All procedures and experimental protocols were approved and conducted in compliance (IACUC-21501). For metastasis experiments, as described previously, tail vein injections with HT29 cells (0.5 × 10^6) carrying a luciferase expression construct were conducted. Mice were imaged at 0, 10, and 30 days post injection, and treated with vehicle or drugs (with JAK/HDACi, regorafenib and their combination). Drug treatments were performed as described in PDX experiment. Bioluminescence imaging was accomplished using an IVIS Lumina III instrument (Perkin Elmer, Waltham, MA), and mice were injected with luciferin 10 min prior to imaging. After 30 days, mouse lungs and kidneys were dissected, and ex vivo analyses were performed.

[4] = mouse, in vivo
Text: Upon completion of the experiment for 30 days in HT29 metastasis model, before mice were sacrificed, blood was collected and serum was isolated to evaluate liver and kidney functions to assess toxicity with JAK/HDACi and regorafenib alone, and their combination treatment, using a comprehensive Panel EWrap (Cat# 6330-COMP) by a DRY CHEM 4000 Analyzer.

[5] = Pharmacokinetics in plasma; format: in vivo; conditions: given in combination with JAK/HDACi, C57BL/6 mice plasma, 1, 7, 21, 48 h, i.p.
Method: Blood samples were collected from C57BL/6 mice treated with regorafenib and JAK-HDACi at 1, 7, 21, or 48 h after treatment, and plasma samples were assayed. The quantifications of regorafenib and JAK-HDACi in plasma were conducted using a Shimadzu LC-20AD LC (Shimadzu, OR) and an API5000 MS (Sciex, MA). For sample preparation, a one-step protein precipitation with acetonitrile was used. Plasma (10 µL) was added into 250 µL of acetonitrile. Chromatographic separation was performed using an ACE Excel 3 C18 column. The mobile phase was (A) 0.1% formic acid in water and (B) 0.1% formic acid in acetonitrile utilizing a gradient from 20% to 75%. The injection volume was 10 µL. The run time was 5 min, and the retention time was 2.4 min. Standard curves for regorafenib and JAK-HDACi in plasma were prepared in the ranges of 5–15,000 ng/ml.

Abl = biological target: T1, Abl (Homo sapiens, UniProt P00519); assay: PamStation PTK kinomic profiling; format: cell-based; conditions: change from DMSO control
T1 construct: cell lysates were prepared; endogenous in cells; host or cells: SW480 and RKO
Method: (§2) SW480 and RKO cells were treated with vehicle (DMSO), JAK/HDACi, regorafenib, and their combination for 45 min, and cell lysates were prepared. Tyrosine kinase (PTK) activity (kinomic) profiling was performed using the PamStation®12 platform (PamGene, BV, The Netherlands). As per standard kinomic protocol as described previously. Whole-chip comparative analysis (BioNavigator Upkin PTK v8.0) was performed between groups generating Mean Kinase Statistics (direction of change).

Axl = biological target: T2, Axl (Homo sapiens, UniProt P30530); assay: PamStation PTK kinomic profiling; format: cell-based; conditions: change from DMSO control
T2 construct: cell lysates were prepared; endogenous in cells; host or cells: SW480 and RKO
Method: as §2

EGFR = biological target: T3, EGFR (Homo sapiens, UniProt P00533); assay: PamStation PTK kinomic profiling; format: cell-based; conditions: change from DMSO control
T3 construct: cell lysates were prepared; endogenous in cells; host or cells: SW480 and RKO
Method: as §2

EphA1 = biological target: T4, EphA1 (Homo sapiens, UniProt P21709); assay: PamStation PTK kinomic profiling; format: cell-based; conditions: change from DMSO control
T4 construct: cell lysates were prepared; endogenous in cells; host or cells: SW480 and RKO
Method: as §2

EphA2 = biological target: T5, EphA2 (Homo sapiens, UniProt P29317); assay: PamStation PTK kinomic profiling; format: cell-based; conditions: change from DMSO control
T5 construct: cell lysates were prepared; endogenous in cells; host or cells: SW480 and RKO
Method: as §2

EphA3 = biological target: T6, EphA3 (Homo sapiens, UniProt P29320); assay: PamStation PTK kinomic profiling; format: cell-based; conditions: change from DMSO control
T6 construct: cell lysates were prepared; endogenous in cells; host or cells: SW480 and RKO
Method: as §2

EphA4 = biological target: T7, EphA4 (Homo sapiens, UniProt P54764); assay: PamStation PTK kinomic profiling; format: cell-based; conditions: change from DMSO control
T7 construct: cell lysates were prepared; endogenous in cells; host or cells: SW480 and RKO
Method: as §2

EphA5 = biological target: T8, EphA5 (Homo sapiens, UniProt P54756); assay: PamStation PTK kinomic profiling; format: cell-based; conditions: change from DMSO control
T8 construct: cell lysates were prepared; endogenous in cells; host or cells: SW480 and RKO
Method: as §2

EphA8 = biological target: T9, EphA8 (Homo sapiens, UniProt P29322); assay: PamStation PTK kinomic profiling; format: cell-based; conditions: change from DMSO control
T9 construct: cell lysates were prepared; endogenous in cells; host or cells: SW480 and RKO
Method: as §2

FAK1 = biological target: T10, FAK1 (Homo sapiens, UniProt Q05397); assay: PamStation PTK kinomic profiling; format: cell-based; conditions: change from DMSO control
T10 construct: cell lysates were prepared; endogenous in cells; host or cells: SW480 and RKO
Method: as §2

FAK2 = biological target: T11, FAK2 (Homo sapiens, UniProt Q14289); assay: PamStation PTK kinomic profiling; format: cell-based; conditions: RKO, 45 min, change from DMSO control
T11 construct: cell lysates were prepared; endogenous in cells; host or cells: SW480 and RKO
Method: as §2

T8 sequence (P54756 25-1037): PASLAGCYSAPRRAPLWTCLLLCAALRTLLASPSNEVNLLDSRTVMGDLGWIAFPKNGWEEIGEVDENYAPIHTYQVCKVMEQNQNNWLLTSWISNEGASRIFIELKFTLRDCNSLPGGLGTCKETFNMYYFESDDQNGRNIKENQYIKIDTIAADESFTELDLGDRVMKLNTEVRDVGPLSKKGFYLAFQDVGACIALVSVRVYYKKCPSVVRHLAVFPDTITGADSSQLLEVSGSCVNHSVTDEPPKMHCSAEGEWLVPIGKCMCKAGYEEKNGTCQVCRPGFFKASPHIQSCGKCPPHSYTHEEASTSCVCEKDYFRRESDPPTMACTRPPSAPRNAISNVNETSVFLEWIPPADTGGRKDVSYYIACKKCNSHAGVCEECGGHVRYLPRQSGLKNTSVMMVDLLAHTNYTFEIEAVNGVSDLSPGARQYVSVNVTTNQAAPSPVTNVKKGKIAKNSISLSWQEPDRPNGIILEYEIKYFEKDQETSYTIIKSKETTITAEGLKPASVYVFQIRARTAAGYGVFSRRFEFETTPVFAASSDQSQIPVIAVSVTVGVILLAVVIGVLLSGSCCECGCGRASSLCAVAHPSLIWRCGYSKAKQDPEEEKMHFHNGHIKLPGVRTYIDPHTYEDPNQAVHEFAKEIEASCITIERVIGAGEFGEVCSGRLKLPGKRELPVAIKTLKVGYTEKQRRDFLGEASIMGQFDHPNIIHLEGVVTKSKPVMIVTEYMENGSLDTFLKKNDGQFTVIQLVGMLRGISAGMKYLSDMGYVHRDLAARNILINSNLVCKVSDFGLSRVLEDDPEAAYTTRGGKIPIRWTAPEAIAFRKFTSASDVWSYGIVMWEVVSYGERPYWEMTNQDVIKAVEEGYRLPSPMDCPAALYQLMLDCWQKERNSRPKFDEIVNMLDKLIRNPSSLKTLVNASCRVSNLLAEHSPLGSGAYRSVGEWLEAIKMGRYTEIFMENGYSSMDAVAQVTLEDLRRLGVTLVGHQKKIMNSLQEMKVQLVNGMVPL
T1 sequence (P00519 whole entry): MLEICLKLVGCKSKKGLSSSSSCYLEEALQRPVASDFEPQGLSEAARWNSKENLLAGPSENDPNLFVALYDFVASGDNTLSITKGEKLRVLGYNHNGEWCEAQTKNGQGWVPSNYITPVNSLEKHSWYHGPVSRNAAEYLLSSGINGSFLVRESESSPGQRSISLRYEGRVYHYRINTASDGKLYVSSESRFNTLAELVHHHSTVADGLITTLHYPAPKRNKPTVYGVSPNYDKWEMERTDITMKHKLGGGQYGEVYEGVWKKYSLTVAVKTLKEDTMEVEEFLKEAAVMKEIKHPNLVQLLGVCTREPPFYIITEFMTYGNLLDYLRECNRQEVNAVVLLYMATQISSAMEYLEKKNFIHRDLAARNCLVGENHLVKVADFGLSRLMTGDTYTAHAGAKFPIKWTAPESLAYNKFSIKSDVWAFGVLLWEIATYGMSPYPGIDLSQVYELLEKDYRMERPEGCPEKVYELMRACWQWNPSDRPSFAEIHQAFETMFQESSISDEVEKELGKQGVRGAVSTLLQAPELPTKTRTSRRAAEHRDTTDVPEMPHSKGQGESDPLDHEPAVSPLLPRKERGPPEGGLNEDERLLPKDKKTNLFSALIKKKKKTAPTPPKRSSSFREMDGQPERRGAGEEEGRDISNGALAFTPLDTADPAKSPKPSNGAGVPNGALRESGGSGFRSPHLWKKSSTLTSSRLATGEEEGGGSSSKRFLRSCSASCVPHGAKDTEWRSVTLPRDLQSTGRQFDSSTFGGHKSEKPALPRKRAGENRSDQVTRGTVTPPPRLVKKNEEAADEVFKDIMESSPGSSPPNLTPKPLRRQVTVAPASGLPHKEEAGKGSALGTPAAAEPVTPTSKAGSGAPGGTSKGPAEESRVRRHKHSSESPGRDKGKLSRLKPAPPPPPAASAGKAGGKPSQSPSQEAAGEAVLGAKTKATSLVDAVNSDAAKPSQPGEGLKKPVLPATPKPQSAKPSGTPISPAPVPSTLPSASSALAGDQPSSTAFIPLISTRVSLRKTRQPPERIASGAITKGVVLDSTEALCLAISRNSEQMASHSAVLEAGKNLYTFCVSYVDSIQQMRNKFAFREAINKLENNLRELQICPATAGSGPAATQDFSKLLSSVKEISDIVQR
T2 sequence (P30530 26-894): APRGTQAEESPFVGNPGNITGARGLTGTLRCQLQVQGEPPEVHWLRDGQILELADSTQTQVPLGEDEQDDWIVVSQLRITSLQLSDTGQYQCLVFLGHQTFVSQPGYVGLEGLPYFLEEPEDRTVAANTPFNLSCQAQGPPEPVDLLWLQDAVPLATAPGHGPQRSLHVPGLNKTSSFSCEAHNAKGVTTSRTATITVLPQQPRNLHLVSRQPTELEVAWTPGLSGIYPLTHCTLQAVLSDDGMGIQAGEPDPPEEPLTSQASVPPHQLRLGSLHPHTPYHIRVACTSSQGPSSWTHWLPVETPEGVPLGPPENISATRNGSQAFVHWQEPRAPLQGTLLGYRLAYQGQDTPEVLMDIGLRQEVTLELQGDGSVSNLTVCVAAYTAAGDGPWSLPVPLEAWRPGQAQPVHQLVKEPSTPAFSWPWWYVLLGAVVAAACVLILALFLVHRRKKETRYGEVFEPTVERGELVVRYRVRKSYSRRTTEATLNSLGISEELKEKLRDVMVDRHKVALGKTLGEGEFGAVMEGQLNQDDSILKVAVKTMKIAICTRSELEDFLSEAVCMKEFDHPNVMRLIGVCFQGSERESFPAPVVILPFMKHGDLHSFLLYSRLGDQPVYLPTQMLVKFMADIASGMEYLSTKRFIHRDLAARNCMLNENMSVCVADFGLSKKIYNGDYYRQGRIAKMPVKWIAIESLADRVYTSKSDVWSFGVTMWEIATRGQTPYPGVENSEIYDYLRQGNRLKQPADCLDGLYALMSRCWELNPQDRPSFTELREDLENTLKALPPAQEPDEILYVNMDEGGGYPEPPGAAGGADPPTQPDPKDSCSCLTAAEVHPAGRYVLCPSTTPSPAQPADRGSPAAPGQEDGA
T4 sequence (P21709 26-976): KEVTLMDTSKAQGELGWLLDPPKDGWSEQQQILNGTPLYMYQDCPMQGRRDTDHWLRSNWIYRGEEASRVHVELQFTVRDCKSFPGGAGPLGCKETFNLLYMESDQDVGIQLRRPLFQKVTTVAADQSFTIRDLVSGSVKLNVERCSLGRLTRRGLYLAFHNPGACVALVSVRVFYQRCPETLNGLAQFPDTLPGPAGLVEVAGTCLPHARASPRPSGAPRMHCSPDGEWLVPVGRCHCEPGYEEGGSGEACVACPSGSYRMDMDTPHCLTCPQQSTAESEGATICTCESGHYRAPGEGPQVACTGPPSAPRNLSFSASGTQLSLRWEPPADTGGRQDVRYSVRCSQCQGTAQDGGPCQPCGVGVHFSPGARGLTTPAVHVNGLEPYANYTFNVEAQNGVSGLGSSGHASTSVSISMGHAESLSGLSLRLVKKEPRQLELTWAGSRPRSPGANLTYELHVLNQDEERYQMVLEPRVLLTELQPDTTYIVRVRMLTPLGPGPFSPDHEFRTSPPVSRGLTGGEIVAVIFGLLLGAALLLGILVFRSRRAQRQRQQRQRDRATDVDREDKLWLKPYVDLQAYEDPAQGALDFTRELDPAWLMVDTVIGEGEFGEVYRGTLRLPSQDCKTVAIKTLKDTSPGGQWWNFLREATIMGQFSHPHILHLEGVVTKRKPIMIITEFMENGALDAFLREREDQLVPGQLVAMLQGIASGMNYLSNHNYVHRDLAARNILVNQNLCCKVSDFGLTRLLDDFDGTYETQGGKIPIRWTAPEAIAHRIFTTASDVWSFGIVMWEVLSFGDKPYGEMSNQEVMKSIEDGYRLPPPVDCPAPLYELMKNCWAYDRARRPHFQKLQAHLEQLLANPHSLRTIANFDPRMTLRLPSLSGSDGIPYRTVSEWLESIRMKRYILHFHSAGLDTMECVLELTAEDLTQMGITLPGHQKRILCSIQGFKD
T7 sequence (P54764 20-986): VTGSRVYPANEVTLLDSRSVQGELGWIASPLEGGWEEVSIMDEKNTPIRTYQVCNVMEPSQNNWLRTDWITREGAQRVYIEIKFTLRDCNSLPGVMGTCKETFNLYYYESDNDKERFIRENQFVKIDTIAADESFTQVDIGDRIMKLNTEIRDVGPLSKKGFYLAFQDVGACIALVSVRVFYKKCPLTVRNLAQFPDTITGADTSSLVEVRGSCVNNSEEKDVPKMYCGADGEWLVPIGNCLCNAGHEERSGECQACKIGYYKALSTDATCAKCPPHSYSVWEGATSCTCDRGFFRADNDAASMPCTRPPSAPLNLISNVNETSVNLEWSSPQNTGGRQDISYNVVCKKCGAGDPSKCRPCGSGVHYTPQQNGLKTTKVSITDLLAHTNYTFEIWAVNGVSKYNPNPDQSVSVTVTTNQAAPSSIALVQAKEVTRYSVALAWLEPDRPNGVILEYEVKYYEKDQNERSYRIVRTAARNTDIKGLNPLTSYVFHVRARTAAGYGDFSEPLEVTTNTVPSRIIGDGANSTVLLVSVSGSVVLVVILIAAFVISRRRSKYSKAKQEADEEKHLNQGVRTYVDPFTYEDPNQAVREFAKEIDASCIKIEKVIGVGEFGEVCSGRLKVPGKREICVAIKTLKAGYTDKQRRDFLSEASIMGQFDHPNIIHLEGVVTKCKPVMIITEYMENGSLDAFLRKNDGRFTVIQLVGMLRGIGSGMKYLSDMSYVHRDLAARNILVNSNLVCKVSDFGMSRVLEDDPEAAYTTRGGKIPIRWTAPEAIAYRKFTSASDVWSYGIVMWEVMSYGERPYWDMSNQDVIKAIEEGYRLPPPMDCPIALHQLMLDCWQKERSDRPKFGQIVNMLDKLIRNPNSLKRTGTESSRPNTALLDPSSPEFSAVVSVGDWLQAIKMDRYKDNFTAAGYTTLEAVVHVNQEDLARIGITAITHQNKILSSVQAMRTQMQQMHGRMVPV

## CNC(=O)c1cc(Oc2ccc(NC(=O)Nc3ccc(Cl)c(C(F)(F)F)c3)c(F)c2)ccn1 [regorafenib]
SW480 cells [1]
  cells arrested at the G0-G1 phase: 39.1%
  cells in synthesis (S) phase: 50%
HCT116 cells
  percentage of apoptotic cells (sum of early and late apoptotic cells): 13.62%
HT29 cells
  percentage of apoptotic cells (sum of early and late apoptotic cells): 5.16%
RKO cells
  percentage of apoptotic cells (sum of early and late apoptotic cells): 1.18%
SW480 cells [2]
  percentage of apoptotic cells (sum of early and late apoptotic cells): 11.17%
[3]
  bioluminescence intensity on day 30th: reduced intensities
[4]
  ALT: 16 U/L
  Albumin/Globulin: 1.0
  Creatinine: 0.4 mg/dL
  Globulin: 2.6 g/dL
  Total Billirubin: 0.5 mg/dL
  toxicity by serum analysis (liver and kidney functions): no evident toxicity
[5]
  bioavailability of regorafenib: increased
Abl; RKO, 45 min
  Mean Kinase Statistic, Abl: -0.036
Abl; SW480, 45 min
  Mean Kinase Statistic, Abl: -0.154
Axl; RKO, 45 min
  Mean Kinase Statistic, Axl: -0.027
Axl; SW480, 45 min
  Mean Kinase Statistic, Axl: -0.146
EGFR; RKO, 45 min
  Mean Kinase Statistic, EGFR: 0.026
EGFR; SW480, 45 min
  Mean Kinase Statistic, EGFR: -0.125
EphA1; RKO, 45 min
  Mean Kinase Statistic, EphA1: 0.168
EphA1; SW480, 45 min
  Mean Kinase Statistic, EphA1: -0.125
EphA2; RKO, 45 min
  Mean Kinase Statistic, EphA2: 0.225
EphA2; SW480, 45 min
  Mean Kinase Statistic, EphA2: -0.097
EphA3; RKO, 45 min
  Mean Kinase Statistic, EphA3: 0.028
EphA3; SW480, 45 min
  Mean Kinase Statistic, EphA3: -0.136
EphA4; RKO, 45 min
  Mean Kinase Statistic, EphA4: -0.122
EphA4; SW480, 45 min
  Mean Kinase Statistic, EphA4: -0.155
EphA5; RKO, 45 min
  Mean Kinase Statistic, EphA5: -0.050
EphA5; SW480, 45 min
  Mean Kinase Statistic, EphA5: -0.324
EphA8; RKO, 45 min
  Mean Kinase Statistic, EphA8: -0.006
EphA8; SW480, 45 min
  Mean Kinase Statistic, EphA8: -0.155
FAK1; RKO, 45 min
  Mean Kinase Statistic, FAK1: 0.052
FAK1; SW480, 45 min
  Mean Kinase Statistic, FAK1: -0.131
FAK2
  Mean Kinase Statistic, FAK2: -0.049
